Source: patent US20230183193A1, “4-DIFLUOROMETHYL BENZOYL AMIDES WITH HERBICIDAL ACTION” (BAYER CROPSCIENCE AKTIENGESELLSCHAFT, priority 2017, published 2023)

How the values were obtained:
Assay type in all cases: in vivo
Cyperus serotinus = assay: Pre-emergence herbicidal action, CYPES; details: dosage 320 g/ha, scored visually after 3 weeks vs untreated controls
Summary of the method: (§1)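 Weed seeds were laid out in sandy loam and covered with soil, then the soil surface was treated with an aqueous suspension or emulsion of the formulated compound containing 0.2% wetting agent. Pots stayed in the greenhouse for 3 weeks before damage was rated visually against untreated plants.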

Viola tricolor [1] = assay: Post-emergence herbicidal action, VIOTR; details: 80 g/ha, Table D
Summary of the method: (§2)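 Visual percent activity relative to untreated controls, assessed about 3 weeks after foliar treatment, where 0% equals control growth and 100% equals death. Compounds, as wettable powders or emulsion concentrates, are sprayed onto one-leaf-stage plants in sandy loam.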

Setaria viridis [2] = assay: Post-emergence herbicidal action, SETVI; details: 80 g/ha, Table C
Summary of the method: as §2

Matricaria inodora = assay: Pre-emergence herbicidal action, MATIN; details: dosage 320 g/ha, scored visually after 3 weeks vs untreated controls
Summary of the method: as §1

Amaranthus retroflexus [3] = assay: Pre-emergence herbicidal action, AMARE; details: dosage 320 g/ha, scored visually after 3 weeks vs untreated controls
Summary of the method: as §1

Avena fatua [4] = assay: Post-emergence herbicidal action, AVEFA; details: 80 g/ha, Table C
Summary of the method: as §2

Alopecurus myosuroides [5] = assay: Pre-emergence herbicidal action, ALOMY; details: dosage 320 g/ha, scored visually after 3 weeks vs untreated controls
Summary of the method: as §1

Stellaria media [6] = assay: Pre-emergence herbicidal action, STEME; details: dosage 320 g/ha, scored visually after 3 weeks vs untreated controls
Summary of the method: as §1

Stellaria media [7] = assay: Post-emergence herbicidal action, STEME; details: 80 g/ha, Table D
Summary of the method: as §2

Amaranthus retroflexus [8] = assay: Post-emergence herbicidal action, AMARE; details: 80 g/ha, Table D
Summary of the method: as §2

Avena fatua [9] = assay: Pre-emergence herbicidal action, AVEFA; details: dosage 320 g/ha, scored visually after 3 weeks vs untreated controls
Summary of the method: as §1

Alopecurus myosuroides [10] = assay: Post-emergence herbicidal action, ALOMY; details: 80 g/ha, Table C
Summary of the method: as §2

Abutilon theophrasti [11] = assay: Pre-emergence herbicidal action, ABUTH; details: dosage 320 g/ha, scored visually after 3 weeks vs untreated controls
Summary of the method: as §1

Pharbitis purpureum = assay: Post-emergence herbicidal action, PHBPU; details: 80 g/ha, Table D
Summary of the method: as §2

ECHCG = assay: Post-emergence herbicidal action, ECHCG; details: 80 g/ha, Table C
Summary of the method: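 Weed and crop plants grown in sandy loam in the greenhouse, treated at the one-leaf stage 2–3 weeks after sowing. Damage scored visually after about 3 weeks vs untreated controls (0% = control, 100% = dead).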

Abutilon theophrasti [12] = assay: Post-emergence herbicidal action, ABUTH; details: 80 g/ha, Table D
Summary of the method: as §2

Viola tricolor [13] = assay: Pre-emergence herbicidal action, VIOTR; details: dosage 320 g/ha, scored visually after 3 weeks vs untreated controls
Summary of the method: as §1

Setaria viridis [14] = assay: Pre-emergence herbicidal action, SETVI; details: dosage 320 g/ha, scored visually after 3 weeks vs untreated controls
Summary of the method: as §1

SMILES | herbicidal activity CYPES (Cyperus serotinus) | herbicidal activity VIOTR (Viola tricolor [1]) | herbicidal activity SETVI (Setaria viridis [2]) | herbicidal activity MATIN (Matricaria inodora) | herbicidal activity AMARE (Amaranthus retroflexus [3]) | herbicidal activity AVEFA (Avena fatua [4]) | herbicidal activity ALOMY (Alopecurus myosuroides [5]) | Herbicidal activity STEME (Stellaria media [6]) | Herbicidal activity STEME (Stellaria media [7]) | herbicidal activity AMARE (Amaranthus retroflexus [8]) | herbicidal activity AVEFA (Avena fatua [9]) | herbicidal activity ALOMY (Alopecurus myosuroides [10]) | herbicidal activity ABUTH (Abutilon theophrasti [11]) | Herbicidal activity PHBPU (Pharbitis purpureum) | Herbicidal activity ECHCG (ECHCG) | herbicidal activity ABUTH (Abutilon theophrasti [12]) | herbicidal activity VIOTR (Viola tricolor [13]) | herbicidal activity SETVI (Setaria viridis [14])
CCn1nnnc1NC(=O)c1ccc(C(F)F)c(SC)c1Cl [Example 2-49] | 90% | 100% | 100% | 100% | 100% | 100% | 100% | 90% | 100% | 100% | 100% | 100% | 100% | 100% | 100% | 100% | 100% | 100%
CCn1nnnc1NC(=O)c1ccc(C(F)F)c(SC)c1Br [Example 2-61] | 100% | 100% | 90% | 100% | 100% | 90% | 100% | 100% | 100% | 90% | 100% | 90% | 100% | 100% | 90% | 100% | 100% | 100%
CCn1nnnc1NC(=O)c1ccc(C(F)F)c([S+](C)[O-])c1Br (stereo not drawn) [Example 2-62] | 100% | 100% | 100% | 100% | 100% | 100% | 100% | 100% | 100% | 100% | 100% | 90% | 100% | 100% | 100% | 100% | 100% | 100%
CCn1nnnc1NC(=O)c1ccc(C(F)F)c(S(C)(=O)=O)c1Br [Example 2-63] | 90% | 100% | 100% | 100% | 100% | 100% | 100% | 100% | 100% | 100% | 100% | 100% | 100% | 100% | 100% | 100% | 100% | 100%
CCSc1c(C(F)F)ccc(C(=O)Nc2nnnn2CC)c1Br [Example 2-64] | 100% | 100% | 100% | 100% | 100% | 100% | 100% | 100% | 100% | 100% | 100% | 100% | 100% | 100% | 100% | 100% | 100% | 100%
CCn1nnnc1NC(=O)c1ccc(C(F)F)c(S(=O)(=O)CC)c1I [Example 2-78] | 100% | 90% | 90% | 100% | 100% | 90% | 100% | 100% | 100% | 100% | 100% | 80% | 100% | 90% | 90% | 80% | 100% | 100%
CCSc1c(C(F)F)ccc(C(=O)Nc2ncnn2C)c1Cl [Example 4-52] | 80% | 90% | 100% | 100% | 100% | 100% | 100% | 100% | 90% | 100% | 100% | 90% | 100% | 100% | 100% | 90% | 100% | 100%
CC[S+]([O-])c1c(C(F)F)ccc(C(=O)Nc2ncnn2C)c1Cl (stereo not drawn) [Example 4-53] | 100% | 100% | 100% | 100% | 100% | 100% | 100% | 100% | 90% | 100% | 100% | 90% | 100% | 90% | 90% | 100% | 100% | 100%
CCS(=O)(=O)c1c(C(F)F)ccc(C(=O)Nc2ncnn2C)c1Cl [Example 4-54] | 80% | 100% | 100% | 100% | 100% | 100% | 90% | 100% | 100% | 90% | 80% | 90% | 100% | 100% | 100% | 90% | 100% | 90%
CSc1c(C(F)F)ccc(C(=O)Nc2ncnn2C)c1Br [Example 4-61] | 90% | 100% | 100% | 100% | 100% | 100% | 100% | 90% | 100% | 100% | 90% | 100% | 100% | 100% | 100% | 100% | 100% | 100%
CCS(=O)(=O)c1c(C(F)F)ccc(C(=O)Nc2nonc2Cl)c1C [Example 6-6] | 80% | 100% | 90% | 100% | 90% | 80% | 90% | 90% | 100% | 80% | 90% | 80% | 100% | 100% | 90% | 80% | 100% | 100%
